Results published in patent US5773459A, “Urea- and thiourea-type compounds” (Sugen, Inc., priority 1995, dated 1998).
Like-named read-outs stand apart in the source and are kept apart here.

Test system: HUV-EC-C cells (human umbilical vein endothelial cells)
Experiment: HUV-EC-C Flk-1 assay (3H-thymidine incorporation)
Type: cell-based
Settings: Endothelial cell
Experimental: The HUV-EC-C Flk-1 assay can be performed as follows:
1. Wash and trypsinize HUV-EC-C cells (human umbilical vein endothelial cells, American Type Culture Collection; catalogue no. 1730-CRL). Wash with Dulbecco's phosphate-buffered saline (D-PBS; obtained from Gibco BRL; catalogue no. 14190-029) 2 times at about 1 ml/10 cm^2 of tissue culture flask. Trypsinize with 0.05% trypsin-EDTA in non-enzymatic cell dissociation solution (Sigma Chemical Company; catalogue no. C-1544). The 0.05% trypsin was made by diluting 0.25% trypsin/l mM EDTA (Gibco; catalogue no. 25200-049) in the cell dissociation solution. Trypsinize with about 1 ml/25-30 cm^2 of tissue culture flask for about 5 minutes at 37° C. After cells have detached from the flask, add an equal volume of D-PBS and transfer to a 50 ml sterile centrifuge tube (Fisher Scientific; catalogue no. 05-539-6).
2. Wash the cells with about 35 ml D-PBS in the 50 ml sterile centrifuge tube by adding the D-PBS, centrifuge for 10 minutes at approximately 200×g, aspirate the supernatant, and resuspend with 35 ml D-PBS. Repeat the wash two more times, resuspend the cells in about 1 ml assay medium/15 cm^2 of tissue culture flask. Assay medium consists of F12K medium (Gibco BRL; catalogue no. 21127-014)+0.5% heat-inactivated fetal bovine serum. […]

SMILES: CC(C)S(=O)(=O)c1csc(NC(=O)Nc2ccc(C(C)(C)C)cc2)c1Cl [Example Z1, N-[3-Chloro-4-(isopropylsulfonyl)thien-2-yl]-N'-(4-t-butylphenyl)urea]
- IC50 (VEGF stimulated, read-out: GROWTH DATA: HUV-EC-C/VEGF): 2.9 µM
- IC50 (aFGF stimulated, read-out: GROWTH DATA: HUV-EC-C/aFGF): 30 µM
